Measurements from ChEMBL document CHEMBL6078684, “Discovery of a Novel Non-invasive AR PROTAC Degrader for the Topical Treatment of Androgenetic Alopecia” (J Med Chem, 2024).
Activity calls are given as the source filed them. The rule behind the calls is not given here.

Columns and labels:
[1] = Drug uptake in male Sprague-Dawley rat Dorsal skin assessed as retention rat at 1 mg/ml, TOP measured after 30 mins by LC-MS/MS analysis; type: ADME, tissue-based, Zone of skin; details: in vivo, topical_or_ocular, 0.5 h
[2] = biological target: Protein cereblon/Androgen receptor (Homo sapiens, UniProt P10275+Q96SW2); experiment: PROTAC activity at CRBN/AR in human dermal papilla cell assessed as induction of AR degradation measured after 24 to 72 hrs by Western blot analysis; type: cell-based
Protein cereblon/Androgen receptor, sequence (P10275 whole entry): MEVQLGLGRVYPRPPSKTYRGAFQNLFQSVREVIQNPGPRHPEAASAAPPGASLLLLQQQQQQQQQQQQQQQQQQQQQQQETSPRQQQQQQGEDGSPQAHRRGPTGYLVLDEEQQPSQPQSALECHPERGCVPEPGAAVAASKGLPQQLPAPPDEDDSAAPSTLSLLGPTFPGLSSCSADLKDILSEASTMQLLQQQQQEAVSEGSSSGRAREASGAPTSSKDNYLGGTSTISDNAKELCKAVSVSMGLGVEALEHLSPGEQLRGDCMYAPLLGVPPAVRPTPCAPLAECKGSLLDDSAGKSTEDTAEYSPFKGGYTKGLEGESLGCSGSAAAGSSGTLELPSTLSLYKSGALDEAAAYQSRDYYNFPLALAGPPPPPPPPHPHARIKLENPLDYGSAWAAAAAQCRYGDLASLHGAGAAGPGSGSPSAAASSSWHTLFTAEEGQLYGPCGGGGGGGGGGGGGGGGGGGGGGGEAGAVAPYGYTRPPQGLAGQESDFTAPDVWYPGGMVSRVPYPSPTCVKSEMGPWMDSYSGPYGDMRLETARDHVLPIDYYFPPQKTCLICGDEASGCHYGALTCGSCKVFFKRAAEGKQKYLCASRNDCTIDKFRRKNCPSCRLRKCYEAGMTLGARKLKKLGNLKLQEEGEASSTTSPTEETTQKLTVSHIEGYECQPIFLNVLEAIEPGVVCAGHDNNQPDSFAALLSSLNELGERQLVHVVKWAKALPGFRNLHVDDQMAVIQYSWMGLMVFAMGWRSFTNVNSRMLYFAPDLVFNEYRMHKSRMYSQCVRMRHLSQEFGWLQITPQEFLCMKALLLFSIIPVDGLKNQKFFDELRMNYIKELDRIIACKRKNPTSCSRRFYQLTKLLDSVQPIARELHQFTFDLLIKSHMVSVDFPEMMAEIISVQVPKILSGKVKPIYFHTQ
Protein cereblon/Androgen receptor, sequence (Q96SW2 whole entry): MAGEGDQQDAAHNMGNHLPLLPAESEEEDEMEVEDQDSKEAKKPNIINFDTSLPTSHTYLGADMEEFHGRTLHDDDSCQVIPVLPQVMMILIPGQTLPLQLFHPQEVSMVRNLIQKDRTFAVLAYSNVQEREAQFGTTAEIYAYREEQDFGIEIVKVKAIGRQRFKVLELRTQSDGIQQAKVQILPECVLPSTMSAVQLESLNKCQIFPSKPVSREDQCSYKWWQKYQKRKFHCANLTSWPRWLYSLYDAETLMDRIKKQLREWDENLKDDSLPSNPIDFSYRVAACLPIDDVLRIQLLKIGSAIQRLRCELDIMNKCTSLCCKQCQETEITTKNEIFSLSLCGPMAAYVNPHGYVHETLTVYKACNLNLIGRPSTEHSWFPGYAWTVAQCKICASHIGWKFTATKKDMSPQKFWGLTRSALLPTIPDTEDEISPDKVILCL

[3] = tested on: Mus musculus; experiment: Hair regeneration efficacy in testosterone induced male C57BL/6 mouse androgenetic alopecia model assessed as generation of thick hair with intact scales at 5 %, TOP administered once daily for 14 days with co-administration of 0.2% testosterone and measured after 28 days by SEM analysis; type: functional, organism-based; details: time 28.0 day
[4] = tested on: Mus musculus; experiment: In vivo induction of AR degradation in testosterone induced male C57BL/6 mouse androgenetic alopecia model assessed as decrease in AR protein level in skin at […] TOP administered once daily for 14 days with co-administration of 0.2% testosterone for 28 days by Western blot analysis; type: functional, organism-based; details: time 14.0 day
[5] = tested on: Mus musculus; experiment: Hair regeneration efficacy in testosterone induced male C57BL/6 mouse androgenetic alopecia model assessed as increase in Ki67 expression in skin at 5 % TOP administered once daily for 14 days with co-administration of 0.2% testosterone for 28 days by DAPI staining based immunofluorescence analysis; type: functional, organism-based; details: time 14.0 day
[6] = tested on: Mus musculus; experiment: Hair regeneration efficacy in testosterone induced male C57BL/6 mouse androgenetic alopecia model at 5 %, TOP administered once daily for 14 days and measured after 21 days with co-administration of 0.2% testosterone for 28 days by photographic analysis; type: functional, organism-based; details: time 21.0 day
[7] = tested on: Mus musculus; experiment: Hair regeneration efficacy in testosterone induced male C57BL/6 mouse androgenetic alopecia model earlier pigmentation at 5 %, TOP administered once daily for 14 days and measured after 21 days with co-administration of 0.2% testosterone for 28 days by photographic analysis; type: functional, organism-based; details: time 14.0 day
[8] = tested on: Human dermal papilla cell; experiment: Downregulation of TGF-beta1 expression level in human dermal papilla cells at 1 uM preincubated with testosterone for 24 hrs followed by compound addition and measured after 48 hrs by Western blot analysis; type: functional, cell-based
[9] = tested on: Mus musculus; experiment: Hair regeneration efficacy in testosterone induced male C57BL/6 mouse androgenetic alopecia model assessed as well formed stratum corneum in hair at 5 %, TOP administered once daily for 14 days with co-administration of 0.2% testosterone and measured after 28 days by SEM analysis; type: functional, organism-based; details: time 28.0 day
[10] = tested on: Mus musculus; experiment: Hair regeneration efficacy in testosterone induced male C57BL/6 mouse androgenetic alopecia model assessed as increase in hair cycle score at 5 %, TOP administered once daily for 14 days with co-administration of 0.2% testosterone for 28 days; type: functional, organism-based; details: time 14.0 day
[11] = tested on: Human dermal papilla cell; experiment: Upregulation of beta-catenin level in human dermal papilla cells at 1 uM preincubated with testosterone for 24 hrs followed by compound addition and measured after 48 hrs by Western blot analysis; type: functional, cell-based
[12] = tested on: Mus musculus; experiment: Hair regeneration efficacy in testosterone induced male C57BL/6 mouse androgenetic alopecia model assessed as entry of hair follicles to anagen phase by measuring high density of enlarged hair bulbs in subcutaneous tissue at 5 %, TOP administered once daily for 14 days with co-administration of 0.2% testosterone for 28 days by H and E staining based analysis; type: functional, organism-based; details: time 14.0 day
[13] = Inhibition of TGF-beta1 release in human dermal papilla cells assessed as TGF-beta1 concentration at 1 uM preincubated with testosterone for 24 hrs followed by compound addition and measured after 48 hrs by ELISA; type: functional, Human dermal papilla cell
[14] = tested on: Human dermal papilla cell; experiment: Downregulation of AR protein expression in human dermal papilla cells at 1 uM preincubated with testosterone for 24 hrs followed by compound addition and measured after 48 hrs by Western blot analysis; type: functional, cell-based

SMILES	Drug uptake [1]	DC50 [2]	also measured
O=C1CCC(N2C(=O)c3ccc(N4CCCC(CN5CCC(c6ccc(C(F)(F)F)cc6)CC5)C4)cc3C2=O)C(=O)N1 (stereo not given)	5.75%	–	–
O=C1CCC(N2C(=O)c3ccc(N4CC(CN5CCC(c6ccc(C(F)(F)F)cc6)CC5)C4)cc3C2=O)C(=O)N1 (stereo not given)	8.45%	–	–
N#Cc1ccc(O[C@H]2CC[C@H](NC(=O)c3ccc(N4CCN(CC5CCN(c6ccc7c(c6)C(=O)N(C6CCC(=O)NC6=O)C7=O)CC5)CC4)cc3)CC2)cc1Cl (stereo not given in full)	0.69%	–	–
O=C1CCC(N2C(=O)c3ccc(N4CCC(CN5CCC(c6ccc(C(F)(F)F)cc6)CC5)C4)cc3C2=O)C(=O)N1 (stereo not given)	1.94%	–	–
N#Cc1ccc(O[C@H]2CC[C@H](NC(=O)c3ccc(N4CCN(CC5CCN(c6ccc7c(c6)C(=O)N(C6CCC(=O)NC6=O)C7=O)C5)CC4)cc3)CC2)cc1Cl (stereo not given in full)	0.74%	> 1 µM	–
Nc1cc(N2CCCCC2)nc(N)[n+]1[O-] [MINOXIDIL]	–	–	Activity [3]: Active; Activity [4]: inactive; Activity [5]: Active; Activity [6]: Active; Activity [7]: Active; Activity [8]: Active; Activity [9]: Active; Activity [10]: Active; Activity [11]: Active; Activity [12]: Active; Activity [13]: 952.22 pg/mL; Activity [14]: inactive
O=C1CCC(NC(=O)c2ccc(N3CCN(CC4CCN(c5ccc(F)cc5)CC4)CC3)cc2)C(=O)N1 (stereo not given)	4.99%	–	–
O=C1CCC(N2C(=O)c3ccc(N4CCN(CC5CCN(c6ccc(C(F)(F)F)cc6)CC5)CC4)cc3C2=O)C(=O)N1 (stereo not given)	8.73%	–	–
CNC(=O)c1ccc(N2C(=S)N(c3ccc(C#N)c(C(F)(F)F)c3)C(=O)C2(C)C)cc1F [ENZALUTAMIDE]	–	–	Activity [8]: Active; Activity [11]: Active; Activity [13]: 1195 pg/mL; Activity [14]: inactive
N#Cc1ccc(O[C@H]2CC[C@H](NC(=O)c3ccc(N4CCC(CN5CCN(c6ccc7c(c6)C(=O)N(C6CCC(=O)NC6=O)C7=O)CC5)CC4)cc3)CC2)cc1Cl (stereo not given in full)	0.62%	0.207 µM	–
N#Cc1ccc(O[C@H]2CC[C@H](NC(=O)c3ccc(N4CCN(C5CN(c6ccc7c(c6)C(=O)N(C6CCC(=O)NC6=O)C7=O)C5)CC4)cc3)CC2)cc1Cl (stereo not given in full)	1.41%	> 1 µM	–
N#Cc1ccc(O[C@H]2CC[C@H](NC(=O)c3ccc(C4CCN(CC5CCCN(c6ccc7c(c6)C(=O)N(C6CCC(=O)NC6=O)C7=O)C5)CC4)cc3)CC2)cc1Cl (stereo not given in full)	0.58%	> 1 µM	–
O=C1CCC(N2Cc3cc(OCC#CCN4CCN(CC#Cc5ccc(C(F)(F)F)cc5)CC4)ccc3C2=O)C(=O)N1 (stereo not given)	5.41%	–	–
O=C1CCC(N2C(=O)c3ccc(N4CC(N5CCN(c6ccc(C(F)(F)F)cc6)CC5)C4)cc3C2=O)C(=O)N1 (stereo not given)	5.84%	–	–
N#Cc1ccc(O[C@H]2CC[C@H](NC(=O)c3ccc(N4CCC(CCN5CCN(c6ccc(C(=O)NC7CCC(=O)NC7=O)cc6)CC5)CC4)cc3)CC2)cc1Cl (stereo not given in full)	1%	> 1 µM	–

The next lines start with results.

Drug uptake [1]	DC50 [2]	SMILES	also measured
9.12%	–	O=C1CCC(NC(=O)c2ccc(N3CCN(C4CCN(c5ccc(F)cc5)CC4)CC3)cc2)C(=O)N1 (stereo not given)	–
0.96%	–	O=C1CCC(N2C(=O)c3cccc(N4CCC(CN5CCN(c6ccc(C(F)(F)F)cc6)CC5)C4)c3C2=O)C(=O)N1 (stereo not given)	–
0.6%	> 1 µM	N#Cc1ccc(O[C@H]2CC[C@H](NC(=O)c3ccc(C4CCN(CC5CN(c6ccc7c(c6)C(=O)N(C6CCC(=O)NC6=O)C7=O)C5)CC4)cc3)CC2)cc1Cl (stereo not given in full)	–
1.23%	0.0709 µM	N#Cc1ccc(O[C@H]2CC[C@H](NC(=O)c3ccc(C4CCN(CC5CN(c6ccc(C(=O)NC7CCC(=O)NC7=O)cc6)C5)CC4)cc3)CC2)cc1Cl (stereo not given in full)	–
6.93%	–	O=C1CCC(NC(=O)c2ccc(N3CCN(CCCCc4ccc(F)cc4)CC3)cc2)C(=O)N1 (stereo not given)	–
2.48%	–	O=C1CCC(N2Cc3cc(C#CCN4CCN(c5ccc(C(F)(F)F)cc5)CC4)ccc3C2=O)C(=O)N1 (stereo not given)	–
1.31%	0.104 µM	N#Cc1ccc(O[C@H]2CC[C@H](NC(=O)c3ccc(N4CCC(N5CCN(c6ccc(C(=O)NC7CCC(=O)NC7=O)cc6)CC5)CC4)cc3)CC2)cc1Cl (stereo not given in full)	–
4.34%	–	O=C1CCC(N2C(=O)c3cccc(NC4CCN(CC5CCN(c6ccc(C(F)(F)F)cc6)CC5)CC4)c3C2=O)C(=O)N1 (stereo not given)	–
1.86%	> 1 µM	N#Cc1ccc(O[C@H]2CC[C@H](NC(=O)c3ccc(N4CCN(CC5CCN(c6ccc(C(=O)NC7CCC(=O)NC7=O)cc6)C5)CC4)cc3)CC2)cc1Cl (stereo not given in full)	–
3.92%	–	O=C1CCC(NC(=O)c2ccc(N3CCN(CCC4CCN(c5ccc(F)cc5)CC4)CC3)cc2)C(=O)N1 (stereo not given)	–
2.22%	–	O=C1CCC(N2C(=O)c3cc(F)c(N4CC(CN5CCC(c6ccc(C(F)(F)F)cc6)CC5)C4)cc3C2=O)C(=O)N1 (stereo not given)	–
0.68%	–	O=C1CCC(N2C(=O)c3ccc(N4CCC(CN5CCN(c6ccc(C(F)(F)F)cc6)CC5)C4)cc3C2=O)C(=O)N1 (stereo not given)	–
1.91%	–	O=C1CCC(N2Cc3c(OCC#CCN4CCN(CC#Cc5ccc(C(F)(F)F)cc5)CC4)cccc3C2=O)C(=O)N1 (stereo not given)	–
1.49%	> 1 µM	N#Cc1ccc(O[C@H]2CC[C@H](NC(=O)c3ccc(CCCCN4CCN(c5ccc(C(=O)NC6CCC(=O)NC6=O)cc5)CC4)cc3)CC2)cc1Cl (stereo not given in full)	–
0.81%	> 1 µM	N#Cc1ccc(O[C@H]2CC[C@H](NC(=O)c3ccc(N4CCC(CN5CCN(c6ccc(C(=O)NC7CCC(=O)NC7=O)cc6)CC5)CC4)cc3)CC2)cc1Cl (stereo not given in full)	–
